{"source": "patent US9408393B2", "about": "“Bismuth-thiols as antiseptics for agricultural, industrial and other uses” (Microbion Corporation, priority 2010, dated 2016)", "key": {"resistant E. coli": {"tested_on": "resistant E. coli", "experiment": "MIC in Mueller-Hinton II broth, antibiotic + BisEDT", "assay_type": "cell-based, Escherichia coli", "from_the_text": "Chloramphenicol and ampicillin resistant Escherichia coli were made sensitive to these drugs by the addition of subMIC BisEDT (Table 24).\nTetracycline resistant Escherichia coli were made sensitive to doxycycline by the addition of subMIC BisEDT (Table 25)."}, "Enterococcus faecalis": {"tested_on": "Enterococcus faecalis", "experiment": "Single-point BisEDT-antibiotic combination FICI", "assay_type": "cell-based", "settings": "E Fc 3121"}, "[1]": {"tested_on": "B. cepacia (B. multivorans, B. cenocepacia)", "experiment": "MIC and FIC index, tobramycin + BisEDT", "assay_type": "cell-based, Burkholderia cepacia", "settings": "0.4 μg/ml BisEDT"}, "[2]": {"tested_on": "Staphylococcus aureus (SA, MRSA)", "experiment": "Single-point BisEDT-antibiotic combination FICI", "assay_type": "cell-based"}, "[3]": {"tested_on": "Streptococcus pneumoniae (SP, PRSP)", "experiment": "Single-point BisEDT-antibiotic combination FICI", "settings": "PRSP 5348"}, "Bukholderia multivorans": {"tested_on": "Bukholderia multivorans", "experiment": "Single-point BisEDT-antibiotic combination FICI", "assay_type": "cell-based", "settings": "Bmult 5665"}, "Acinetobacter baumanii": {"tested_on": "Acinetobacter baumanii", "experiment": "Single-point BisEDT-antibiotic combination FICI", "assay_type": "cell-based", "settings": "Abau 2594"}, "Pseudomonas aeruginosa": {"tested_on": "Pseudomonas aeruginosa", "experiment": "Single-point BisEDT-antibiotic combination FICI", "assay_type": "cell-based", "settings": "PA 1380"}, "Klebsiella pneumoniae": {"tested_on": "Klebsiella pneumoniae", "experiment": "Single-point BisEDT-antibiotic combination FICI", "assay_type": "cell-based", "settings": "KP 1231"}, "Burkholderia cepacia": {"tested_on": "Burkholderia cepacia", "experiment": "Single-point BisEDT-antibiotic combination FICI", "assay_type": "cell-based", "settings": "Bcep 1756"}, "S. aureus": {"tested_on": "S. aureus", "experiment": "Broth dilution MIC/MBC, BT-antibiotic combinations", "assay_type": "cell-based, Staphylococcus aureus", "settings": "Staphylococcus aureus, Tobramycin resistant strains table, S. aureus SA-29213", "method": "Materials & Methods. Susceptibility studies were performed by broth dilution in 96-well tissue culture plates (Nalge Nunc International, Denmark) in accordance with NCCLS protocols (National Committee for Clinical Laboratory Standards. (1997). Methods for Dilution Antimicrobial Susceptibility Tests for Bacteria that Grow Aerobically: Approved Standard M7-A2 and Informational Supplement M100-S10. NCCLS, Wayne, Pa., USA).\nBriefly, overnight bacterial cultures were used to prepare 0.5 McFarland standard suspensions, which were further diluted 1:50 (˜2×10^6 cfu/mL) in cation-adjusted Mueller-Hinton broth medium (BBL, Cockeysville, Md., USA). BTs (prepared as described above) and antibiotics were added at incremental concentrations, keeping the final volume constant at 0.2 mL. Cultures were incubated for 24 h at 37° C. and turbidity was assessed by absorption at 630 nm using an ELISA plate reader (Biotek Instruments, Winooski, Vt., USA) according to the manufacturer's recommendations. […] Viable bacterial counts (cfu/mL) were determined by standard plating on nutrient agar.\nThe checkerboard method was used to assess the activity of antimicrobial combinations. The fractional inhibitory concentration index (FICI) and the fractional bactericidal concentration index (FBCI) were calculated, according to Eliopoulos et al. (Eliopoulos and Moellering, (1996) Antimicrobial combinations. In Antibiotics in Laboratory Medicine (Lorian, V., Ed.), pp. 330-96, Williams and Wilkins, Baltimore, Md., USA). Synergy was defined as an FICI or FBCI index of […], no interaction at >0.5-4 and antagonism at >4 (Odds, F C (2003) Synergy, antagonism, and what the chequerboard puts between them. Journal of Antimicrobial Chemotherapy 52:1). Synergy was also defined conventionally as ≧4-fold decrease in antibiotic concentration."}, "Escherichia coli": {"tested_on": "Escherichia coli", "experiment": "Single-point BisEDT-antibiotic combination FICI", "assay_type": "cell-based", "settings": "EC 2232"}, "[4]": {"settings": "tobramycin-resistant Burkholderia cepacia"}}, "data": [{"smiles": "CC1(C)S[C@@H]2[C@H](NC(=O)[C@H](N)c3ccccc3)C(=O)N2[C@H]1C(=O)O", "note": "[AM, ampicillin]", "values": [{"measurement": "MIC", "setting": "resistant E. coli; Escherichia coli, read-out: Drug + BE MIC, Chloramphenicol/Ampicillin resistant E. coli, BE 0.33 μg/ml", "result": 49, "unit": "µg/mL"}]}, {"smiles": "C[C@H]1c2cccc(O)c2C(=O)C2=C(O)[C@]3(O)C(=O)C(C(N)=O)=C(O)[C@@H](N(C)C)[C@@H]3[C@@H](O)[C@@H]21", "note": "[DOX, doxycycline]", "values": [{"measurement": "FIC, doxycycline + subMIC BisEDT", "setting": "resistant E. coli; E. coli TET M and TET D strains", "result": 0.5}]}, {"smiles": "NC[C@H]1O[C@H](O[C@H]2[C@H](O)[C@@H](O[C@H]3O[C@H](CO)[C@@H](O)[C@H](N)[C@H]3O)[C@H](N)C[C@@H]2N)[C@H](N)C[C@@H]1O", "note": "[Tobramycin]", "values": [{"measurement": "FICI, single-point BisEDT-antibiotic combination", "setting": "Enterococcus faecalis", "result": 0.47}, {"measurement": "Isolates rendered tobramycin sensitive", "setting": "[1]", "result": "seven of 10"}, {"measurement": "Fold reduction of tobramycin MIC90", "setting": "[1]; [4]", "result": 10, "unit": "fold"}, {"measurement": "mean FIC", "setting": "[1]; [4]", "result": 0.48}, {"measurement": "FICI, single-point BisEDT-antibiotic combination", "setting": "[2]; MRSA 773", "result": 0.78}, {"measurement": "FICI, single-point BisEDT-antibiotic combination", "setting": "[2]; SA 100", "result": 0.73}, {"measurement": "FICI, single-point BisEDT-antibiotic combination", "setting": "[3]", "result": 0.57}, {"measurement": "FICI, single-point BisEDT-antibiotic combination", "setting": "Bukholderia multivorans", "result": 0.67}, {"measurement": "FICI, single-point BisEDT-antibiotic combination", "setting": "Acinetobacter baumanii", "result": 1.12}, {"measurement": "FICI, single-point BisEDT-antibiotic combination", "setting": "Pseudomonas aeruginosa", "result": 1.29}, {"measurement": "FICI, single-point BisEDT-antibiotic combination", "setting": "Klebsiella pneumoniae", "result": 0.87}, {"measurement": "FICI, single-point BisEDT-antibiotic combination", "setting": "Burkholderia cepacia", "result": 0.91}, {"measurement": "MBC", "setting": "S. aureus; read-out: NN MBC", "result": 2, "unit": "µg/mL"}, {"measurement": "MIC", "setting": "S. aureus; read-out: NN MIC", "result": 2, "unit": "µg/mL"}, {"measurement": "FICI, single-point BisEDT-antibiotic combination", "setting": "Escherichia coli", "result": 0.96}]}]}
